# Test results reported in US12729377B2, “RNAi agents and compositions for inhibiting expression of angiopoietin-like 3 (ANGPTL3), and methods of use” (Arrowhead Pharmaceuticals, Inc., priority 2017, dated 2026).
# In the oligonucleotide strings, read from the 5' end, every base follows the letter of its sugar. An asterisk marks phosphorothioate; unmarked linkages are phosphodiester. Other units and linkages are bracketed, terminal groups are in braces. A string of capitals states the bases alone. {NAG37} = tridentate N-acetyl-galactosamine targeting ligand, structure (NAG37)s; [invAb] = inverted abasic unit; m = 2'-O-methyl; f = 2'-fluoro
# How the values were obtained:
# ANGPTL3 gene [1] = experiment: Example 11: dose response, serum LDL in mice; format: in vivo, C57bl/6 mice
# Method: To assess the dose response of ANGPTL3 RNAi agent AD05488, six- to eight-week-old female C57bl/6 mice were used. Pre-dose serum samples were taken at day −1 after a four hour fast. At day 1, each mouse was given a single subcutaneous administration of 200 μl containing the respective mg/kg dose of an ANGPTL3 RNAi agent in D5W (dextrose in 5% water), or control (D5W) with no RNAi agent, according to the dosing groups recited in Table 53:
# The RNAi agent tested (AD05488) included a modified sequence and an N-acetyl-galactosamine-containing targeting ligand conjugated to the 5′ terminal end of the sense strand. (See Tables 3, 4, and 5 for modified sequences and targeting ligand structures). The injections were performed between the skin and muscle (i.e. subcutaneous injections) into the loose skin over the neck and shoulder area. Four (4) mice in each group were tested (n=4). Serum was collected on days 8, 15, 22, and 29. Mice were fasted for four hours prior to each collection. ANGPTL3 protein levels in serum were measured by ELISA assay (R&D Systems), according to the manufacturer's recommendations. Triglycerides, total cholesterol, high-density lipoprotein (HDL), and low-density lipoprotein (LDL) in serum were measured on a Cobas® Integra 400 (Roche Diagnostics), according to the manufacturer's recommendations.
# The ANGPTL3 protein levels, triglyceride levels, total cholesterol levels, HDL levels, and LDL levels for each animal were normalized. For normalization, the level of ANGPTL3 protein, triglyceride, HDL, and total cholesterol, respectively, for each animal at a time point, was divided by the pre-treatment level of expression in that animal (in this case at day −1) to determine the ratio of expression “normalized to pre-treatment.” Expression at a specific time point was then normalized to the D5W control group by dividing the “normalized to pre-treatment” ratio for an individual animal by the mean “normalized to pretreatment” ratio of all mice in the D5W control group.
# ANGPTL3 gene [2] = experiment: Example 12: serum triglycerides in LDLR knockout mice; format: in vivo, LDLR KO mice
# Source text: To evaluate the effect of RNAi agent administration in a disease model, mice having a genetic mutation for the LDL receptor (referred to herein as LDLR KO mice) were commercially obtained (The Jackson Laboratory). The LDLR KO mice are homozygous for the Ldlr^tm1Her mutation, and have elevated serum cholesterol levels, particularly when placed on a high fat diet. For three weeks prior to the onset of the study, thirty-nine (39) LDLR KO mice were placed on a high fat diet (Teklad Custom Diets TD.88137). An additional eight (8) LDLR KO mice were placed on a normal chow diet over the same three-week period. Pre-dose serum samples were taken on day −15 and day −1 after a four hour fast. At day 1, each mouse was given a single subcutaneous administration of 200 μl/30 g animal body weight containing the respective mg/kg dose of an ANGPTL3 RNAi agent in D5W (dextrose in 5% water), control (D5W) with no RNAi agent, or a control RNAi agent that included a nucleotide sequence designed to target the Hepatitis B Virus (HBV) genome. A second injection of the same formulation was administered to the animals on day 29. The dosing regimen for the study is recited in the following Table 60:
# Each mouse remained on its respective diet through the duration of study. The RNAi agent tested (AD05488) included a modified sequence and an N-acetyl-galactosamine-containing targeting ligand conjugated to the 5′ terminal end of the sense strand. (See Tables 3, […] modified sequences and targeting ligand structures). The injections were performed between the skin and muscle (i.e. subcutaneous injections) into the loose skin over the neck and shoulder area. Serum was collected on days 8, 15, 22, 29 (pre-second dose), 36, 43, 50, and 57. LDLR KO mice were fasted for four hours prior to each collection. On day 15, four (4) LDLR KO mice from Groups 1, 2, and 3 (i.e., the groups being administered the high fat “Western” diet) were sacrificed after serum collection, and on day 29, an additional four (4) LDLR KO mice from Groups 1, 2, and 3 were sacrificed after serum collection, for the purpose of performing mRNA assessments.
# ANGPTL3 protein levels in serum were measured by ELISA assay (R&D Systems), according to the manufacturer's recommendations. Triglycerides, total cholesterol, high-density lipoprotein (HDL), and low-density lipoprotein (LDL) in serum were measured on a Cobas® Integra 400 (Roche Diagnostics), according to the manufacturer's recommendations.
# The ANGPTL3 protein levels, triglyceride levels, total cholesterol levels, HDL levels, and LDL levels for each animal were normalized. For normalization, respective levels of ANGPTL3 protein, TG, total cholesterol, HDL, or LDL for each animal at a time point was divided by the average pre-treatment level of expression in that animal (in this case the average of day −15 and day −1) to determine the ratio of expression “normalized to pre-treatment.”
# Expression at a specific time point was then normalized to the D5W control group that was administered the same diet (i.e., either the high fat “Western” diet or the normal chow-fed diet) by dividing the “normalized to pre-treatment” ratio for an individual animal by the mean “normalized to pretreatment” ratio of all mice in the D5W control group on the respective same diet, resulting in expression for each time point normalized to that in the control group.
substance,measurement,setting,value
"AD05488: RNAi agent duplex: antisense AM07235-AS, sense AM07234-SS (antisense mU*fA*mC*fUmGfAmUfCmAfAmAfUmAfUmGfUmUfGmAfG*mC; sense {NAG37}*[invAb]*mGmCmUmCmAmAmCmAfUfAfUmUmUmGmAmUmCmAmGmUmA*[invAb])",Avg LDL Normalized to Pre-Treatment and Control,"ANGPTL3 gene [1]; 0.05 mg/kg single sc day 1, Day 8",0.798
same,Avg LDL Normalized to Pre-Treatment and Control,"ANGPTL3 gene [1]; 0.05 mg/kg single sc day 1, Day 15",1.147
same,Avg LDL Normalized to Pre-Treatment and Control,"ANGPTL3 gene [1]; 0.05 mg/kg single sc day 1, Day 22",0.772
same,Avg LDL Normalized to Pre-Treatment and Control,"ANGPTL3 gene [1]; 0.05 mg/kg single sc day 1, Day 29",0.822
same,Avg LDL Normalized to Pre-Treatment and Control,"ANGPTL3 gene [1]; 0.1 mg/kg single sc day 1, Day 8",0.878
same,Avg LDL Normalized to Pre-Treatment and Control,"ANGPTL3 gene [1]; 0.1 mg/kg single sc day 1, Day 15",1.153
same,Avg LDL Normalized to Pre-Treatment and Control,"ANGPTL3 gene [1]; 0.1 mg/kg single sc day 1, Day 22",0.732
same,Avg LDL Normalized to Pre-Treatment and Control,"ANGPTL3 gene [1]; 0.1 mg/kg single sc day 1, Day 29",0.845
same,Avg LDL Normalized to Pre-Treatment and Control,"ANGPTL3 gene [1]; 0.5 mg/kg single sc day 1, Day 8",0.816
same,Avg LDL Normalized to Pre-Treatment and Control,"ANGPTL3 gene [1]; 0.5 mg/kg single sc day 1, Day 15",1.137
same,Avg LDL Normalized to Pre-Treatment and Control,"ANGPTL3 gene [1]; 0.5 mg/kg single sc day 1, Day 22",0.866
same,Avg LDL Normalized to Pre-Treatment and Control,"ANGPTL3 gene [1]; 0.5 mg/kg single sc day 1, Day 29",0.896
same,Avg LDL Normalized to Pre-Treatment and Control,"ANGPTL3 gene [1]; 1.0 mg/kg single sc day 1, Day 8",0.760
same,Avg LDL Normalized to Pre-Treatment and Control,"ANGPTL3 gene [1]; 1.0 mg/kg single sc day 1, Day 15",1.145
same,Avg LDL Normalized to Pre-Treatment and Control,"ANGPTL3 gene [1]; 1.0 mg/kg single sc day 1, Day 22",0.993
same,Avg LDL Normalized to Pre-Treatment and Control,"ANGPTL3 gene [1]; 1.0 mg/kg single sc day 1, Day 29",1.123
same,Avg LDL Normalized to Pre-Treatment and Control,"ANGPTL3 gene [1]; 2.5 mg/kg single sc day 1, Day 8",0.805
same,Avg LDL Normalized to Pre-Treatment and Control,"ANGPTL3 gene [1]; 2.5 mg/kg single sc day 1, Day 15",1.185
same,Avg LDL Normalized to Pre-Treatment and Control,"ANGPTL3 gene [1]; 2.5 mg/kg single sc day 1, Day 22",0.915
same,Avg LDL Normalized to Pre-Treatment and Control,"ANGPTL3 gene [1]; 2.5 mg/kg single sc day 1, Day 29",0.814
same,Avg LDL Normalized to Pre-Treatment and Control,"ANGPTL3 gene [1]; 5.0 mg/kg single sc day 1, Day 8",0.802
same,Avg LDL Normalized to Pre-Treatment and Control,"ANGPTL3 gene [1]; 5.0 mg/kg single sc day 1, Day 15",1.170
same,Avg LDL Normalized to Pre-Treatment and Control,"ANGPTL3 gene [1]; 5.0 mg/kg single sc day 1, Day 22",0.909
same,Avg LDL Normalized to Pre-Treatment and Control,"ANGPTL3 gene [1]; 5.0 mg/kg single sc day 1, Day 29",0.932
same,reductions in TG levels,"ANGPTL3 gene [2]; 3.0 mg/kg on days 1 and 29 (Groups 2 and 5), LDLR KO mice",significant reductions
same,Avg TG (Triglycerides) Normalized to Pre-Treatment and Control (Diet Matched),"ANGPTL3 gene [2]; 3.0 mg/kg sc day 1, High Fat Diet, Day 8",0.121
same,Avg TG (Triglycerides) Normalized to Pre-Treatment and Control (Diet Matched),"ANGPTL3 gene [2]; 3.0 mg/kg sc day 1, High Fat Diet, Day 15",0.086
same,Avg TG (Triglycerides) Normalized to Pre-Treatment and Control (Diet Matched),"ANGPTL3 gene [2]; 3.0 mg/kg sc day 1, High Fat Diet, Day 22",0.094
same,Avg TG (Triglycerides) Normalized to Pre-Treatment and Control (Diet Matched),"ANGPTL3 gene [2]; 3.0 mg/kg sc day 1, High Fat Diet, Day 29 (pre-second dose)",0.096
same,Avg TG (Triglycerides) Normalized to Pre-Treatment and Control (Diet Matched),"ANGPTL3 gene [2]; 3.0 mg/kg sc day 1, Normal Diet, Day 8",0.472
same,Avg TG (Triglycerides) Normalized to Pre-Treatment and Control (Diet Matched),"ANGPTL3 gene [2]; 3.0 mg/kg sc day 1, Normal Diet, Day 15",0.503
same,Avg TG (Triglycerides) Normalized to Pre-Treatment and Control (Diet Matched),"ANGPTL3 gene [2]; 3.0 mg/kg sc day 1, Normal Diet, Day 22",0.473
same,Avg TG (Triglycerides) Normalized to Pre-Treatment and Control (Diet Matched),"ANGPTL3 gene [2]; 3.0 mg/kg sc day 1, Normal Diet, Day 29 (pre-second dose)",0.480
same,Avg TG (Triglycerides) Normalized to Pre-Treatment and Control (Diet Matched),"ANGPTL3 gene [2]; 3.0 mg/kg sc days 1 and 29, High Fat Diet, Day 36",0.104
same,Avg TG (Triglycerides) Normalized to Pre-Treatment and Control (Diet Matched),"ANGPTL3 gene [2]; 3.0 mg/kg sc days 1 and 29, High Fat Diet, Day 43",0.084
same,Avg TG (Triglycerides) Normalized to Pre-Treatment and Control (Diet Matched),"ANGPTL3 gene [2]; 3.0 mg/kg sc days 1 and 29, High Fat Diet, Day 50",0.091
same,Avg TG (Triglycerides) Normalized to Pre-Treatment and Control (Diet Matched),"ANGPTL3 gene [2]; 3.0 mg/kg sc days 1 and 29, High Fat Diet, Day 57",0.079
same,Avg TG (Triglycerides) Normalized to Pre-Treatment and Control (Diet Matched),"ANGPTL3 gene [2]; 3.0 mg/kg sc days 1 and 29, Normal Diet, Day 36",0.548
same,Avg TG (Triglycerides) Normalized to Pre-Treatment and Control (Diet Matched),"ANGPTL3 gene [2]; 3.0 mg/kg sc days 1 and 29, Normal Diet, Day 43",0.348
same,Avg TG (Triglycerides) Normalized to Pre-Treatment and Control (Diet Matched),"ANGPTL3 gene [2]; 3.0 mg/kg sc days 1 and 29, Normal Diet, Day 50",0.625
same,Avg TG (Triglycerides) Normalized to Pre-Treatment and Control (Diet Matched),"ANGPTL3 gene [2]; 3.0 mg/kg sc days 1 and 29, Normal Diet, Day 57",0.438
